Source: the NIST ThermoML archive (doi:10.1021/je5010824)

Columns and labels:
[1] = refractive index (Na D-line) (dimensionless); settings: 298.15 K; 101.33 kPa; Liquid; Standard Abbe refractometry
[2] = Liquid; for mass density: 298.15 K, 101.33 kPa, Vibrating tube method; for vapor or sublimation pressure: Ebulliometric method (Recirculating still)

CCC(O)CO (centres undefined) [1,2-butanediol]
Settings | mass density [kg/m3] | refractive index
[1] | – | 1.4378
[2] | 998.78 | –

[2]
Settings | vapor or sublimation pressure [kPa]
392.06 K | 5.62
397.24 K | 7.21
402.31 K | 8.86
405.41 K | 10
406.54 K | 10.62
412.23 K | 13.56
417.66 K | 16.89
422.15 K | 20
422.48 K | 20.34
427.21 K | 24.45
432.29 K | 29.56
437.41 K | 35.54
440.83 K | 40
442.77 K | 41.92
447.52 K | 50.54
452.13 K | 58.86
457.24 K | 69.36
462.57 K | 81.92
466.64 K | 92.78
469.71 K | 101.3

OCCO [1,2-ethanediol]
Settings | refractive index
[1] | 1.431

[2]
Settings | vapor or sublimation pressure [kPa]
406.1 K | 10
423.29 K | 20
442.17 K | 40
470.4 K | 101.3

CC(O)CO (centres undefined) [1,2-propanediol]
Settings | mass density [kg/m3] | refractive index
[1] | – | 1.432
[2] | 1031.9 | –

[2]
Settings | vapor or sublimation pressure [kPa]
398.25 K | 10
398.26 K | 10
414.88 K | 20
433.22 K | 40
460.69 K | 101.3
